US20240058390A1, “WNT+ ADIPOCYTES, EXOSOMES FROM WNT+ ADIPOCYTES, AND METHODS OF MAKING AND USING THEM” (The Administrators of the Tulane Educational Fund, priority 2020, published 2024)
Entries after “also recorded” stand apart in the source; their conditions may differ.

How the values were obtained:
Wnt/β-catenin signaling = Wnt/β-catenin signaling activity (TCF/Lef:H2B-GFP reporter) in SVF precursors under pro-adipogenic conditions; format: cell-based, mouse; conditions: DKK1 100 ng/ml, IWP-2 5 μM, LF3 10 and 20 μM
Method: (§1) Immortalized cell lines, isolated adipose SVF cells, MEFs, and BMSCs were seeded into plates at the density of 4×10^3 cells/cm^2 (cell line and SVF) or 1.5×10^4 cells/cm2 (BMSCs) in MesenCult™ Expansion medium (Stemcell Technologies Inc., Cambridge, MA, catalog no. 05513), and treated with MesenCult™ Adipogenic Differentiation cocktail (Stemcell, catalog no. 05507) with 90% cell confluence. Cells were cultured for various days after pro-adipogenic induction prior to being harvested for following experiments. Adipogenesis was examined by lipid staining. Briefly, differentiated adipocytes were washed twice with PBS, fixed in 4% paraformaldehyde (PFA) for 15 min, and then stained with Oil Red O solution (Sigma-Aldrich, catalog no. 01391) for 20 min at ambient temperature or with 20 nM BODIPY (dipyrrometheneboron difluoride, catalog no. D3835, Thermo Fisher Scientific) in PBS for 15 min at 37° C. Subsequently, cells were washed with PBS before imaging.
(§2) For inhibition studies, SVF cells or precursor cell lines, 3 days after pro-adipogenic induction, were treated with each of the following molecules for 4 days: DKK1 (product 5897-DK-010, R&D Systems, Minneapolis, MN) (100 ng/ml), IWP-2 (catalog no. 72122, Stemcell), (5 μM), LF3 (catalog no. 58474, Selleck Chemicals) (10 and 20 μM, or 50 μM on cell lines), and LY294002 (catalog no. S1105, Selleck Chemicals) (2 and 14 μM), along with vehicles (PBS or DMSO).

[1] = tested on: Wnt^+ adipocytes in iWAT and iBAT; experiment: mTOR antagonist treatment of T/L-GFP mice, quantification of Wnt+ adipocytes; format: in vivo, mouse; conditions: T/L-GFP adult mice, 600 μg/kg i.p. daily for 5 days, vs vehicle
Method: (§3) For cold-exposure experiments, mice were singly caged and exposed to cold temperature at 6° C. for 2, 4, or 14 consecutive days. For β3-adrenoceptor agonist treatment, adult male mice were injected intraperitoneally with CL316,243 (CAS No. 138908-40-4, product C5976, Sigma-Aldrich Inc., St. Louis, MO) at 1 mg/kg body weight daily for 4 consecutive days prior to sample collection. Age-matched male littermates were treated intraperitoneally with saline as vehicle controls. […]
(§4) Adipose tissue was fixed in 4% PFA at 4° C. overnight, followed by dehydration through serial ethanol. […] After washing, sections were processed with a Vector TrueVIEW™ Autofluorescence Quenching Kit treatment (Vector Laboratories, Inc, Burlingame, CA, SP-8400) for 5 min to remove unspecific fluorescence on sections due to red blood cells and structural elements such as collagen and elastin. […] Images of tissue samples were captured using a Nikon confocal Microscope A1 HD25 (Nikon Instruments Inc., Melville, NY) and analyzed using ImageJ software (Version 1.51S). For quantification of Wnt^+ adipocytes, we randomly chose 12-18 images from each tissue of one mouse. Microscopic pictures (10× objective) were taken, and the total cell number and the number of GFP^+ adipocytes within each image were counted.

Wnt^+ adipocytes in iWAT = experiment: β3-adrenoceptor agonist treatment of T/L-GFP mice, beiging in iWAT; format: in vivo, mouse; conditions: 1 mg/kg i.p. daily for 4 days
Method: as §3, §4

[2] = tested on: Wnt^+ adipocytes in iWAT of T/L-DTA mice; experiment: Tamoxifen-induced ablation of Wnt+ adipocytes in T/L-DTA mice; format: in vivo, mouse; conditions: 150 mg/kg i.p., 2 days
Method: To ablate Wnt^+ adipocytes in vivo, Fabp4-Flex-DTA mice were crossed with Tcf/Lef-CreERT2 mice to generate Tcf/Lef-CreERT2;Fabp4-Flex-DTA mice (“T/L-DTA” mice), which received 2-day tamoxifen administration via intraperitoneal injection at the dose of 150 mg/kg body weight. […] Forty-eight hours later, T/L-DTA mice and tamoxifen-treated littermate controls (Fabp4-Flex-DTA mice) were housed at 6° C. for 2 days, respectively.

iBAT-derived SVF cells = experiment: Adipogenic maturation of SVF-derived adipocytes (Oil Red O staining); format: cell-based, mouse; conditions: LF3, dose-dependent
Method: as §1, with “imaging. […]” for “imaging.”

[3] = tested on: Wnt^+ adipocytes induced from GFPpos-1 and GFPpos-2 cell lines; experiment: Treatment of induced Wnt+ adipocytes from GFPpos-1 and GFPpos-2 cell lines (GFP signal, cell death); format: cell-based, mouse
Source text: (§5) SVFs of iBAT from adult TCF/Lef:H2B-GFP male mice were separated and collected as described above. Cells at passage 1 were transduced with pUltra-hot-LT LV particles. Two days after transduction, cells were purified by performing FACS to remove mCherry- and Lin+ cells Immortalized cells were subjected to clonal selection through serial limited dilutions. The expression of GFP in cell colonies under pro-adipogenic induction was used as a readout for the accurate establishment of Wnt+ (>95%) and Wnt− (Wnt+=0%) adipocyte cell lines, respectively.
as §1, §2

[4] = tested on: Wnt^− adipocytes induced from GFPneg precursor cell lines; experiment: Treatment of induced Wnt− adipocytes from GFPneg precursor cell lines (viability, maturation); format: cell-based, mouse
Source text: as §5, §1, §2

[5] = tested on: uninduced Wnt^+ and Wnt^− precursor cell lines; experiment: Treatment of uninduced Wnt+ and Wnt− precursor cell lines; format: cell-based, mouse; conditions: same dose of LF3
Source text: as §5
[…] S1105, Selleck Chemicals) (2 and 14 μM), along with vehicles (PBS or DMSO).

Cc1ccc2nc(NC(=O)CSc3nc4c(c(=O)n3-c3ccccc3)SCC4)sc2c1 [1WP-2, IWP-2]
inhibition of Wnt/β-catenin signaling activity (Wnt/β-catenin signaling): failed to

CO[C@H]1C[C@@H]2CC[C@@H](C)[C@@](O)(O2)C(=O)C(=O)N2CCCC[C@H]2C(=O)O[C@H]([C@H](C)C[C@@H]2CC[C@@H](OC(=O)C(C)(CO)CO)[C@H](OC)C2)CC(=O)[C@H](C)/C=C(\C)[C@@H](O)[C@@H](OC)C(=O)[C@H](C)C[C@H](C)/C=C/C=C/C=C/1C [temsirolimus, Temsirolimus]
Wnt+ adipocyte numbers in iBAT [1]: dramatically reduced Wnt^+ adipocyte numbers | Wnt+ adipocyte numbers in iWAT [1]: dramatically reduced Wnt^+ adipocyte numbers

C[C@H](Cc1ccc2c(c1)OC(C(=O)[O-])(C(=O)[O-])O2)NC[C@H](O)c1cccc(Cl)c1.[Na+].[Na+] [CL316,243]
proportion of Wnt+ adipocytes in iWAT (Wnt^+ adipocytes in iWAT): unaltered

CC/C(=C(\c1ccccc1)c1ccc(OCCN(C)C)cc1)c1ccccc1 [tamoxifen]
ablation of Wnt+ adipocytes in iWAT [2]: about 87%

LF3
inhibition of Wnt/β-catenin signaling activity (Wnt/β-catenin signaling): did inhibit | adipogenic maturation of SVF-derived adipocytes (iBAT-derived SVF cells): impaired/delayed adipogenic maturation | GFP expression in induced Wnt+ adipocytes ([3]; 50 μM LF3, first day): quenched GFP expression; also recorded: GFP signals are significantly quenched | cell number of induced Wnt+ adipocytes ([3]; 50 μM LF3, one day): obviously reduced cell numbers | cell death of induced Wnt+ adipocytes ([3]; 50 μM LF3, second day): massive cell death; also recorded: Remarkable cell death | cell viability of induced Wnt− adipocytes ([4]; LF3): did not affect cell viability | maturation of Wnt− adipocytes ([4]; LF3): slowed down the maturation | adipogenic capacity of LF3-treated Wnt− adipocytes after return to normal pro-adipogenic medium ([4]; LF3, rescue experiment): resumed full adipogenic capacity | impact on uninduced precursor cell lines [5]: showed no impacts

B1: DKK1: canonical Wnt receptor antagonist (R&D Systems 5897-DK-010) (protein, UniProt O94907 32-266, looked up)
Dickkopf-related protein 1: TLNSVLNSNAIKNLPPPLGGAAGHPGSAVSAAPGILYPGGNKYQTIDNYQPYPCAEDEECGTDEYCASPTRGGDAGVQICLACRKRRKRCMRHAMCCPGNYCKNGICVSSDQNHFRGEIEETITESFGNDHSTLDGYSRRTTLSSKMYHTKGQEGSVCLRSSDCASGLCCARHFWSKICKPVLKEGQVCTKHRRKGSHGLEIFQRCYCGEGLSCRIQKDHHQASNSSRLHTCQRH
inhibition of Wnt/β-catenin signaling activity (Wnt/β-catenin signaling): failed to
